Laboratory results: patent US20170275287A1, “NOVEL N2, N4, N7, 6-TETRASUBSTITUTED PTERIDINE-2,4,7-TRIAMINE AND 2, 4, 6, 7-TETRASUBSTITUTED PTERIDINE COMPOUNDS AND METHODS OF SYNTHESIS AND USE THEREOF” (Janus Biotherapeutics, Inc., priority 2014, published 2017)

Target: T1, TLR8 (Homo sapiens, UniProt Q9NR97)
T1 construct: PBMCs were isolated from unpurified buffy coat from healthy human donors; host or cells: primary human PBMCs
T1 sequence (Q9NR97 27-1041): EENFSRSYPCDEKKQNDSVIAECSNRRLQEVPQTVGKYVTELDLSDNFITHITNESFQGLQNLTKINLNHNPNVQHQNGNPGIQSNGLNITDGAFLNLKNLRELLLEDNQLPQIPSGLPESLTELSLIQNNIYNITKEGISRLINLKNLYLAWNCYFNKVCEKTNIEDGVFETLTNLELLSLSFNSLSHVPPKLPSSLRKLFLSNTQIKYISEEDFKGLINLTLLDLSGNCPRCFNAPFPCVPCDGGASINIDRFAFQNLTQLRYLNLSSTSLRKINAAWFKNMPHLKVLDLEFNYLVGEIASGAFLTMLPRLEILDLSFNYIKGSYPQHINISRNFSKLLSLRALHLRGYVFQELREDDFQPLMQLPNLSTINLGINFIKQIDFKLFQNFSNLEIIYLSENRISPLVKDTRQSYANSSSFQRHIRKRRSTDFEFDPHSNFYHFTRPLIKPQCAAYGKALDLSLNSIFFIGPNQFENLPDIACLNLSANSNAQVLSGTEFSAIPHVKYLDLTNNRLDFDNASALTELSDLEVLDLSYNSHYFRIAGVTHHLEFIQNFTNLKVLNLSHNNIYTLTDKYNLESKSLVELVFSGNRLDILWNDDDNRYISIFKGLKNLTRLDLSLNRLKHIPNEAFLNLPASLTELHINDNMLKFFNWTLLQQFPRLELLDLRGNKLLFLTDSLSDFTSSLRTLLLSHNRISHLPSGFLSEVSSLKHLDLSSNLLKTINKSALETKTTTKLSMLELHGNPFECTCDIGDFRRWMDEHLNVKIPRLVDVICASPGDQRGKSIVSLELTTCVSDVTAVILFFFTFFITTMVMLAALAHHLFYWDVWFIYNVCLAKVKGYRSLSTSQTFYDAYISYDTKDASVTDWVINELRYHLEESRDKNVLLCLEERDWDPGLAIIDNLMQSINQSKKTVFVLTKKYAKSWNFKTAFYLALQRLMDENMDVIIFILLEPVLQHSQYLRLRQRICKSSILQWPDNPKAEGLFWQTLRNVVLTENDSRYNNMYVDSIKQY
Experiment: TLR8 antagonist assay in human PBMCs (ORN1075, TNFα ELISA)
Format: cell-based
Settings: human PBMC, 0.5 μM ORN1075, TNFα readout
Procedure: PBMCs were isolated from unpurified buffy coat from healthy human donors (Blood Research Components, LLC). For antagonist testing, cells were plated on 96-well U-bottom plates at 3×10^6 cells/ml. Antagonist compounds were added to cells in duplicate wells and titrated from 10 μM in 1:3 serial dilutions (8 antagonist concentrations tested in total). After approximately 30 minutes, cells were stimulated with agonist compound (see table 2 for agonist concentrations). After stimulation, cells were incubated overnight at 37° C. To increase the stability of the ssRNA, 3 μg/ml DOTAP (Roche) was added to ORN1075 agonist solutions. All dilutions were made in RPMI-1640 media (Sigma, cat.# R7388)+5% human male AB sera (Sigma, cat.# H4522)+1× Penicillin/Streptomycin solution (VWR, cat.#82026-730).
TLR activity was measured in PBMCs and neutrophils by ELISA using cytokine readouts specific for the TLR of interest.
TNFα was used as a readout for TLR8 activity in PBMCs and neutrophils stimulated with ORN1075 (See Table 3 for concentrations) using the ELISA Max™ Deluxe Set Human TNFα kit (BioLegend, cat.#430206). Supernatant from PBMCs was diluted 1:50 and from neutrophils at 1:3 in 1× Assay Diluent (BioLegend). ELISAs were run according to the kit product specifications. Absorbance at 450 nm was recorded using a Molecular Devices SpectraMax340PC plate reader. The IC50 for each antagonist was subsequently calculated following the method described below.
Raw ELISA datasets for each 96-well plate, consisting of absorbance readings at […], were first imported in Microsoft Excel to calculate the average absorbance for each standard or antagonist concentration. The averaged data was then imported into SigmaPlot v.11.0 where a standard curve was calculated and used to extrapolate the relative concentration of TLR readout (TNFα, IFNα, etc.) produced. The dose-response curve of each antagonist was then plotted with SigmaPlot v.11.0 on a Log scale. Concentrations of TLR readout were converted to a percentage relative to the average maximum concentration for that ELISA plate in Microsoft Excel. The IC50 for each antagonist was then determined with the SigmaPlot regression wizard using a 4-parameter Hill equation. Each antagonist was tested in a minimum of 3 independent experiments and IC50 results were compiled and averaged using Microsoft Excel.

Row | IC50 | Structure (SMILES)
1 | 263 nM | C[C@@H]1CN(CCNc2nc3nc(N4CCN(C)CC4)nc(NCCN4C[C@@H](C)O[C@@H](C)C4)c3nc2Cl)C[C@H](C)O1 [JB6143]
2 | 246 nM | Clc1nc2c(NCCN3CCOCC3)nc(NCc3ccccc3)nc2nc1NCCN1CCOCC1 [JB6172]
3 | 658 nM | CN1CCN(c2nc3nc(-c4ccccc4)nc(NCCN4CCOCC4)c3nc2OCCN2CCOCC2)CC1 [JB6116]
4 | 7300 nM | Clc1nc2c(NCCN3CCOCC3)nc(N3CCOCC3)nc2nc1NCCN1CCOCC1 [JB6147]
5 | 78 nM | CCOc1nc2c(NCCN3CCCC3)nc(-c3ccccc3)nc2nc1N1CCN(C)CC1 [JB6131]
6 | 136 nM | CCCCNc1nc(NCCN2CCOCC2)c2nc(SCC)c(NCCN3CCOCC3)nc2n1 [JB6185]
7 | 273 nM | CN1CCN(c2nc(NCCN3CCOCC3)c3ncc(-c4ccccc4)nc3n2)CC1 [JB6059]
8 | 151 nM | CCOc1nc2c(NCCN3CCOCC3)nc(NCc3ccccc3)nc2nc1NCCN1CCOCC1 [JB6180]
9 | 754 nM | CCCCNc1nc(NCCN2CCOCC2)c2nc(Cl)c(NCCN3CCOCC3)nc2n1 [JB6140]
10 | 219 nM | COCCN1CCN(c2nc(NCCN3CCOCC3)c3nc(Cl)c(NCCN4CCOCC4)nc3n2)CC1 [JB6160]

Row | Structure (SMILES) | IC50
11 | CN1CCN(c2nc(NCCN3CCOCC3)c3nc(Cl)c(NCCN4CCOCC4)nc3n2)CC1 [JB6121, 6-chloro-2-(4-methylpiperazin-1-yl)-N^4,N^7-bis(2-morpholinoethyl)pteridine-4,7-diamine] | 514 nM
